Data reported in ChEMBL document CHEMBL1141313 (Bioorg Med Chem, 2007).
pEC50, pIC50, pKi: −log10 of the molar value. Each block holds one molecule with its values, some of them ahead of it.

Columns and labels:
[1] = biological target: Protease (Human immunodeficiency virus 1) (UniProt Q9YQ12); test: (§1) Inhibition of HIV1 protease
[2] = tested on: Human immunodeficiency virus 1; test: Antiviral activity against HIV1 in CEM cells; format: functional; settings: Human immunodeficiency virus 1, CCRF-CEM; for pIC50: read-out: ID50 (the source's name)
Protease [3] = biological target: T1, Protease (Human immunodeficiency virus 1, UniProt Q9YQ12); test: as §1
Target sequence in this assay (Q9YQ12 whole entry): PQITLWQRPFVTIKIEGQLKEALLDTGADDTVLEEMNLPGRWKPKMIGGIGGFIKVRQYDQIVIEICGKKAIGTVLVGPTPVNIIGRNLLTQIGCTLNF

[4] = tested on: Human immunodeficiency virus 1; test: Antiviral activity against HIV1 in MT4 cells; format: functional
Protease [5] = biological target: T1, Protease; test: Inhibition of HIV1 protease mutant
Target sequence in this assay (Q9YQ12 1-99): as the sequence (Q9YQ12 whole entry) above

[6] = tested on: Human immunodeficiency virus 1; test: Antiviral activity against protease inhibitor-resistant HIV1 isolate; format: functional, organism-based

Protease (Human immunodeficiency virus 1), sequence (Q9YQ12 as listed by the source): as the sequence (Q9YQ12 whole entry) above

- Activity [1]: < 20 nM
Structure (SMILES): COC(=O)N[C@H](C(=O)NCCCC[C@@H](COP(=O)(O)O)N(CC(C)C)S(=O)(=O)c1ccc(N)cc1)C(c1ccccc1)c1ccccc1

- pIC50 (Protease [3]): 8.74
Structure (SMILES): CC(C)(C)NC(=O)[C@@H]1C[C@@H]2CCCC[C@@H]2CN1C[C@@H](O)[C@H](Cc1ccccc1)NC(=O)O[C@H]1CO[C@H]2OCC[C@H]21
- IC95 ([2]; read-out: CIC95): 46 nM

- pIC50 [2]: 8.33
Structure (SMILES): CC(C)CN(C[C@@H](O)[C@H](Cc1ccccc1)NC(=O)O[C@H]1CO[C@H]2OCC[C@H]21)S(=O)(=O)c1ccc(N)cc1
- ID90 [4]: 10 nM
- TD50 [4]: >100 µM

Structure (SMILES): COC(=O)N[C@H](C(=O)NCCCC[C@@H](CO)N(CC(C)C)S(=O)(=O)c1ccc(N)cc1)C(c1ccccc1)c1ccccc1
- Activity [1]: < 20 nM

- pIC50 (Protease [3]): 8.74
- pKi (Protease [3]): 11.35
Structure (SMILES): CC(C)CN(C[C@@H](O)[C@H](Cc1ccccc1)NC(=O)O[C@@H]1C[C@@H]2CCO[C@@H]2C1)S(=O)(=O)c1ccc(CO)cc1

Structure (SMILES): COc1ccc(S(=O)(=O)N(CC(C)C)C[C@@H](O)[C@H](Cc2ccccc2)NC(=O)O[C@H]2CO[C@H]3OCC[C@H]32)cc1
- pIC50 [2]: 8.92

Structure (SMILES): C=CCNC(=O)[C@H]1NC(C(=O)[C@@H](O)[C@H](Cc2ccccc2)NC(=O)c2cccc(O)c2)SC1(C)C (stereo partly drawn)
- pKi (Protease [5]): 10.00
- pEC50 [6]: 7.47
- pKi (Protease [3]): 10.00
